Data as given in ChEMBL document CHEMBL3797164, “Transfer of SAR information from hypotensive indazole to indole derivatives acting at α-adrenergic receptors: In vitro and in vivo studies” (Eur J Med Chem, 2016).
pKi: −log10 of the molar value.

How the values were obtained:
Rattus norvegicus [1] = assay: Antihypertensive activity in anesthetized Wistar rat assessed as change in heart rate at 0.1 mg/kg, iv administered as bolus dose after 60 mins (reference value: -6.2 […]); assay type: functional
Rattus norvegicus [2] = assay: Antihypertensive activity in anesthetized Wistar rat assessed as change in mean arterial blood pressure at 0.1 mg/kg, iv administered as bolus dose after 15 mins (reference value: -0.8 mmHg); assay type: functional
[3] = target: T1, Adrenergic receptor alpha-2 (Rattus norvegicus, UniProt P22086+P19328+P22909); assay: Displacement of [3H]RX821002 from Alpha-2 adrenergic receptor in Sprague-Dawley rat brain P2 membranes after […] by liquid scintillation counting
T1 sequence (P22086 whole entry): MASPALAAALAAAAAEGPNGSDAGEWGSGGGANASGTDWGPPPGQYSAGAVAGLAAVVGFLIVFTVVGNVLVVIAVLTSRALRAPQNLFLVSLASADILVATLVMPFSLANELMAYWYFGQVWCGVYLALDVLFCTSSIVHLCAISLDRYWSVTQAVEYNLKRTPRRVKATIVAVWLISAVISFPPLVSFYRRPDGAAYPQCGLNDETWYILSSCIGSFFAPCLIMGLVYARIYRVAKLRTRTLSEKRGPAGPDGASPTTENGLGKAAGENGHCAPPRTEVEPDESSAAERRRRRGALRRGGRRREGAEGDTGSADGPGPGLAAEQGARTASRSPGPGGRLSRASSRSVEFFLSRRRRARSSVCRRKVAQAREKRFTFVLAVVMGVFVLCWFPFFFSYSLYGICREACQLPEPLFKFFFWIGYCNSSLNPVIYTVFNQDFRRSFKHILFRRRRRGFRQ
T1 sequence (P19328 whole entry): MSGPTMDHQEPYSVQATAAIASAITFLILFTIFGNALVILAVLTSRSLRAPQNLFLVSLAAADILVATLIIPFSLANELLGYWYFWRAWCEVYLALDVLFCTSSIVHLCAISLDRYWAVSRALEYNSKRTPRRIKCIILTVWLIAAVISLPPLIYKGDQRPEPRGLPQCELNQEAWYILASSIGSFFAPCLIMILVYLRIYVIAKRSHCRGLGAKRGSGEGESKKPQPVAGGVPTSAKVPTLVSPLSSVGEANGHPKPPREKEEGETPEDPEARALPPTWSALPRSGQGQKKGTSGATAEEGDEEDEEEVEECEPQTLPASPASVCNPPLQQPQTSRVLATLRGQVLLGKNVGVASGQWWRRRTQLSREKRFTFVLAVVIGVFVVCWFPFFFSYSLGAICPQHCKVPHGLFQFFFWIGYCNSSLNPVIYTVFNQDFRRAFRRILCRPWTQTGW
T1 sequence (P22909 whole entry): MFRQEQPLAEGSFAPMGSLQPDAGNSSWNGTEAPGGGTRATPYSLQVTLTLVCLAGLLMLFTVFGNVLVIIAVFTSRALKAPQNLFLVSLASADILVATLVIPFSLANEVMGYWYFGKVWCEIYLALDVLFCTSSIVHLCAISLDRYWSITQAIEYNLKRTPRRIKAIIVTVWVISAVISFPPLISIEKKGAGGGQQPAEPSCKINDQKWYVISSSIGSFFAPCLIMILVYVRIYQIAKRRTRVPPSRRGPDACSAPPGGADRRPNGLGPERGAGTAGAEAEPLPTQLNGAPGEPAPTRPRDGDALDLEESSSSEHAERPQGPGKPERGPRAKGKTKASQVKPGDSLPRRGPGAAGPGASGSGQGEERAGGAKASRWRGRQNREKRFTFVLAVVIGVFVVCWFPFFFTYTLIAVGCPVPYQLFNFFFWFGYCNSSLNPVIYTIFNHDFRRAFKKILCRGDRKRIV

Rattus norvegicus [4] = assay: Antihypertensive activity in anesthetized Wistar rat assessed as change in mean arterial blood pressure at 0.1 mg/kg, iv administered as bolus dose after 30 mins (reference value: -1.3 mmHg); assay type: functional
[5] = Displacement of [3H]2BFI from Imidazoline receptor 2 in Sprague-Dawley rat brain P2 membrans after […] by liquid scintillation counting
Rattus norvegicus [6] = assay: Antihypertensive activity in anesthetized Wistar rat assessed as change in mean arterial blood pressure at 0.1 mg/kg, iv administered as bolus dose after 5 mins (reference value: 0.4 mmHg); assay type: functional
Rattus norvegicus [7] = assay: Antihypertensive activity in anesthetized Wistar rat assessed as change in heart rate at 0.1 mg/kg, iv administered as bolus dose after 15 mins (reference value: -6.0 […]); assay type: functional
Rattus norvegicus [8] = assay: Antihypertensive activity in anesthetized Wistar rat assessed as change in heart rate at 0.1 mg/kg, iv administered as bolus dose after 2 mins (reference value: -0.6 […]); assay type: functional
Rattus norvegicus [9] = assay: Antihypertensive activity in anesthetized Wistar rat assessed as change in heart rate at 0.1 mg/kg, iv administered as bolus dose after 5 mins (reference value: -2.9 […]); assay type: functional
Rattus norvegicus [10] = assay: Antihypertensive activity in anesthetized Wistar rat assessed as change in mean arterial blood pressure at 0.1 mg/kg, iv administered as bolus dose after 2 mins; assay type: functional

| SMILES | Activity (Rattus norvegicus [1]) [bpm] | Activity (Rattus norvegicus [2]) [mmHg] | Ki [3] [nM] | Activity (Rattus norvegicus [4]) [mmHg] | pKi [5] | Activity (Rattus norvegicus [6]) [mmHg] | Activity (Rattus norvegicus [7]) [bpm] | Activity (Rattus norvegicus [8]) [bpm] | Activity (Rattus norvegicus [9]) [bpm] | Activity (Rattus norvegicus [10]) [mmHg] |
| --- | --- | --- | --- | --- | --- | --- | --- | --- | --- | --- |
| Cl.c1ccc2c(c1)ccn2CC1=NCCN1 | -75.1 | 6.9 | 33.5 | -27.9 | 6.71 | 33.7 | -115.2 | -138.4 | -100.1 | 34.1 |
| Cl.Clc1cccc2ccn(CC3=NCCN3)c12 | -129.4 | -36 | 6.34 | -56.1 | 7.15 | 7.4 | -130.7 | -89.6 | -132 | 15.2 |
| Br.Cc1cccc2ccn(CC3=NCCN3)c12 | -87.7 | -39.2 | 16.63 | -46.5 | 5.94 | -4.2 | -107.5 | -61.3 | -83.3 | 13.4 |
